For this data set, the system named is A431 cell line. Put plainly: In vitro cytotoxicity assay (MTT). The format is cell-based, human. The note with it: 4 h exposure, 72 h incubation. How it is done:
A human epidermoid carcinoma cell line (A431, ATCC CRL-1555) was maintained in Dulbecco's minimum essential medium (DMEM) supplemented with 10% foetal calf serum (FCS) and 2 mM glutamine (GibcoBRL, UK) at 10% CO2 and 37° C.
Polypropylenimine dendrimer/dendrimer derivative formulation cytotoxicity was assessed by the measurement of the IC50 in a standard MTT (3-[4,5-dimethylthiazol-2-yl]-2,5-diphenyltetrazolium bromide thiazolyl blue—indicator dye) assay. Briefly, 96 well microtitre plates were seeded with 5000 cells per well and incubated for 24 hrs. Dilutions of the dendrimer/dendrimer—DNA formulations (100 μl) in tissue culture medium (Opti-Mem) were incubated with the cells for 4 h. The samples were then replaced with fresh DMEM daily and incubated for 72 h. After this period the indicator dye (50 μl, 50 mg ml^−1) was added to each well and incubated with the cells for 4 h in the dark. The medium and indicator dye were then removed and the cells lysed with dimethylsulphoxide (200 μl). After addition of Sorensen's glycine buffer (25 μl) the absorption was measured at 570 nm. Values were expressed as a percentage of the control to which no vesicles were added.

As for `CCCCCCCC/C=C\CCCCCCCC(=O)OCC(C[N+](C)(C)C)OC(=O)CCCCCCC/C=C\CCCCCCCC.COS(=O)(=O)[O-]` (stereo not shown) [DOTAP, N-[1-(2,3-dioleoyloxy)propyl]-N,N,N-trimethylammonium methylsulphate], the “IC50, in vitro cytotoxicity” value came out at 62 µg/mL.

For the origin of these results see patent publication US20050019923A1, “Dendrimers for use in targeted delivery” (priority 2001, published 2005).
